Measurements published in paper PMC10931745 (International Journal of Molecular Sciences, 2024).

Assays:
MCF-7 = experiment: MTT cell viability assay; assay type: cell-based, human
Procedure: (§1) The cell lines used were purchased from American Type Culture Collection (ATCC, Manassas, VA, USA). Human breast cancer cells MCF-7 and MDA-MB-231, human mammary epithelial cell line MCF-10A, and mouse BALB/3T3 embryonic fibroblasts were cultured as already described by some of us. The murine macrophage cell line RAW 264.7 was maintained in Dulbecco’s Modified Eagle’s Medium (DMEM) high glucose (4.5 g/L) supplemented with 10% Fetal Bovine Serum (FBS), 1% L-glutamine, and 100 units/mL of penicillin/streptomycin. The cell cultures were maintained at the temperature of 37 °C in a humidified atmosphere containing 5% CO2.
(§2) The 3-(4,5-dimethylthiazol-2-yl)-2,5-diphenyl-2H-tetrazolium bromide (MTT) assay (Sigma Aldrich (St. Louis, MO, USA)) was carried out to study the in vitro anticancer activities of the complexes, following the previously reported protocol. The cells were incubated for 72 h with different concentrations of the tested compounds (0.1, 1, 10, 25, 50, 100, and 500 µM) and the IC50 values were calculated from the percent (%) of control using the software GraphPad Prism 9 (GraphPad Software, La Jolla, CA, USA).

MDA-MB-231 = experiment: MTT cell viability assay; assay type: cell-based, human
Procedure: as §1, §2

[1] = test system: human mammary epithelial cell line MCF-10A; experiment: MTT assay, toxicity towards normal cells; assay type: cell-based; conditions: 72 h
Procedure: as §1, §2

[2] = test system: NO production in LPS-stimulated RAW 264.7 macrophages; experiment: Griess assay, NO production; assay type: cell-based, murine; conditions: 25 µM, LPS 1 µg/mL, 24 h
Procedure: The Griess assay was performed using RAW 264.7 murine macrophages to study the anti-inflammatory activity in terms of NO production. RAW 264.7 cells were plated in the 48 multi-wells and, after 24 h, treated with the tested molecules (25 µM) and the lipopolysaccharide (LPS, Sigma Aldrich, Milan, Italy) at a final concentration of 1 µg/mL. LPS is able to induce inflammation by stimulating NO production in immune system cells such as macrophages. After 24 h, the cell medium Griess reagent (Sigma Aldrich, Milan, Italy) was mixed in with a ratio of 1:1. The Griess reagent allowed for the quantification of NO released by macrophages in the treatment medium. The mixture was left for 30 min under agitation and, subsequently, the absorbance at 540 nm was measured using a multiplate reader. The obtained absorbance allowed us to calculate the NO production % compared to the absorbance obtained for the positive control, in which the cells were treated with LPS.

[3] = ABTS radical scavenging assay; assay type: biochemical
Procedure: The radical scavenging properties of the complexes on a 2,20-azino-bis(3-ethylbenzothiazoline-6-sulfonate) radical cation (ABTS^+) were evaluated as previously described.
All the complexes were used at different concentrations (5, 10, 25, 50, and 100 µg/mL) and the ABTS radical scavenging activity, measured at 730 nm using a microplate reader, was expressed as inhibition percentages (%IABTS) compared tothe control, according to the following expression:(3) IABTS (%)=ABSCTRL−ABSsample/ABSCTRL∗100 where ABSCTRL and ABSsample are the absorbance at 730 nm in the control and in the presence of samples, respectively.
IC50 values were calculated from the %IABTS using GraphPad Prism 9 software (GraphPad Inc., San Diego, CA, USA). Trolox was employed as a positive control, while caffeine and theophylline were reference compounds.

[4] = DPPH radical scavenging assay; assay type: biochemical
Procedure: The radical scavenging properties of the complexes on the 1,1-diphenyl-2-picrylhydrazil (DPPH) radical were evaluated as previously described.
All the complexes were used at different concentrations (10, 25, 50, 100, and 200 µg/mL) and the DPPH radical scavenging activity, measured at 517 nm using a microplate reader, was expressed as inhibition percentages (%IDPPH) compared to the initial concentration of DPPH (control) according to the following expression:(2) IDPPH (%)=ABSCTRL−ABSsample/ABSCTRL∗100 where ABSCTRL and ABSsample are the absorbance at 517 nm in the control and in the presence of samples, respectively.
The obtained IDPPH percentages allowed us to calculate the IC50 values using Graph-Pad Prism 9 software (GraphPad Inc., San Diego, CA, USA). Trolox was employed as a positive control, while caffeine and theophylline were reference compounds.

[5] = test system: Escherichia coli (ATCC 25922); experiment: MIC/MBC broth dilution; assay type: cell-based; conditions: for MIC: Escherichia coli, ATCC25922
Procedure: (§3) The bacterial strains used for MIC and MBC value determinations expressed as µg/mL by the broth dilution method, according to CLSI guidelines, were the following:
(§4) -4 Gram-negative: Escherichia coli (ATCC® 25922^TM) and Klebsiella pneumoniae (ATCC® 13883^TM);
(§5) Increasing concentrations of the complexes (50, 70, 100, 150, and 200 µg/mL) were incubated with bacteria plated in 96-well microplates at 37 °C overnight as already reported, and then bacterial growth was checked at a wavelength of 600 nm using a Multiskan spectrophotometer (model Multiskan Ex Microplate; Thermo Scientific, Nyon, Switzerland). MIC or MBC values were obtained by comparing cell density with a positive control (bacterial cells grown in LB medium were added with only the vehicle, DMSO). The results were representative of three independent experiments performed in triplicate. Ampicillin, Gentamicin, and Cephalosporin (Sigma Aldrich A9393) were used as the control for strain sensitivity.

[6] = test system: Klebsiella pneumoniae (ATCC 13883); experiment: MIC/MBC broth dilution; assay type: cell-based; conditions: for MIC: Klebsiella pneumoniae, ATCC13883, read-out: M.I.C. K. pneumoniae
Procedure: as §3, §4, §5

[7] = test system: Enterococcus faecalis (ATCC 19433); experiment: MIC/MBC broth dilution; assay type: cell-based; conditions: for MIC: Enterococcus faecalis, ATCC19433, read-out: M.I.C. E. faecalis
Procedure: as §3
(§6) -3 Gram-positive: Enterococcus faecalis (ATCC® 19433^TM), Staphylococcus aureus (ATCC® 23235^TM), and Staphylococcus epidermidis (ATCC® 14990™).
as §5

[8] = test system: Staphylococcus aureus (ATCC 23235); experiment: MIC/MBC broth dilution; assay type: cell-based; conditions: for MIC: Staphylococcus aureus, ATCC23235, read-out: M.I.C. S. aureus
Procedure: as §3, §6, §5

[9] = test system: Staphylococcus epidermidis (ATCC 14990); experiment: MIC/MBC broth dilution; assay type: cell-based; conditions: for MIC: Staphylococcus epidermidis, ATCC14990, read-out: M.I.C. S. epidermidis
Procedure: as §3, §6, §5

[10] = test system: Pseudomonas aeruginosa (ATCC 15442); experiment: MIC/MBC broth dilution; assay type: cell-based
Procedure: as §3
as §5, with “The results were representative of three independent experiments performed in triplicate.” left out

[11] = test system: Salmonella typhimurium (ATCC 14028); experiment: MIC/MBC broth dilution; assay type: cell-based
Procedure: as §3
as §5, with “The results were representative of three independent experiments performed in triplicate.” left out

[12] = molecular target: T1, human topoisomerase I (hTopoI) (Homo sapiens, UniProt P11387); experiment: Human topoisomerase I relaxation assay; assay type: biochemical; conditions: supercoiled pHOT1 DNA
T1 construct: purchased TopoGEN, Port Orange, FL, USA
T1 sequence (P11387 1-765): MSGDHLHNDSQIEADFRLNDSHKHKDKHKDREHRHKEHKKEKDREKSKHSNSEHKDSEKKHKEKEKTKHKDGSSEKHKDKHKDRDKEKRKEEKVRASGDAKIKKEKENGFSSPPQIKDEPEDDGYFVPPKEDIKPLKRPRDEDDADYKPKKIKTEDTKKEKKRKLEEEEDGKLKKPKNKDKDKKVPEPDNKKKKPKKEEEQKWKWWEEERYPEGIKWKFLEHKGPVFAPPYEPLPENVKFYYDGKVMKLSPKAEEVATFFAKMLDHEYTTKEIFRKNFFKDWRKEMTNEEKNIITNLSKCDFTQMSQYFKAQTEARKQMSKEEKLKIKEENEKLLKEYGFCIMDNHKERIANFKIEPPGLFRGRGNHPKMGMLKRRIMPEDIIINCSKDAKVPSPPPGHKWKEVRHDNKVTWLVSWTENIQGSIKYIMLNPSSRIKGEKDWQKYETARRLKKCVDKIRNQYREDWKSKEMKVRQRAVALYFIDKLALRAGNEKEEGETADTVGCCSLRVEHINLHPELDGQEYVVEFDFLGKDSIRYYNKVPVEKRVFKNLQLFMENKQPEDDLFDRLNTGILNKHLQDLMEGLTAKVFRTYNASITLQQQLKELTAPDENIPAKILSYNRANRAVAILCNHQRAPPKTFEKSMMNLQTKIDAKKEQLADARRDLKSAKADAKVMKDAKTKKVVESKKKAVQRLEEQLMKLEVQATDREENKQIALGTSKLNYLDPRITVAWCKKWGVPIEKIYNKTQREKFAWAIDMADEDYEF
Procedure: The human topoisomerase I relaxation assay was performed as reported in [86]. Shortly, the recombinant human topo I (TopoGEN, Port Orange, FL, USA) was incubated with the super-coiled pHOT1, in the presence or not of the tested compounds, at the indicated concentrations. The reaction products were then allowed to separate through the agarose gel electrophoresis, and ethidium bromide-stained DNA was visualized under UV light.

| Structure (SMILES) | IC50 [3] [µM] | IC50 [4] [µM] | IC50 (MCF-7; Homo sapiens, MCF7, 72 h) [µM] | IC50 (MDA-MB-231; Homo sapiens, MDA-MB-231, 72 h) [µM] | M.I.C. E. coli [5] [µg/mL] | M.I.C. K. pneumoniae [6] [µg/mL] | M.I.C. E. faecalis [7] [µg/mL] | M.I.C. S. aureus [8] [µg/mL] | M.I.C. S. epidermidis [9] [µg/mL] | IC50 ([1]; Homo sapiens, MCF-10A) [µM] | further results |
| --- | --- | --- | --- | --- | --- | --- | --- | --- | --- | --- | --- |
| Cn1c(=O)c2c(ncn2C)n(C)c1=O [Caffeine, 1,3,7-trimethylxanthine, reference compound] | > 500 | > 500 | > 500 | > 500 | >200 | >200 | >200 | >200 | >200 | > 500 | Inhibition of hTopo I supercoil relaxing activity ([12]; 1 µM): failed; IC50 ABTS scavenging [3]: did not show any scavenging capacity; IC50 DPPH scavenging [4]: did not show any scavenging capacity; MIC [5]: > 200 µg/mL; MIC [6]: > 200 µg/mL; MIC [7]: > 200 µg/mL; MIC [8]: > 200 µg/mL; MIC [9]: > 200 µg/mL; M.I.C. P. aeruginosa [10]: >200 µg/mL; MIC ([10]; Pseudomonas aeruginosa, ATCC15442, read-out: M.I.C. P. aeruginosa): > 200 µg/mL |
| N.N.[Cl][Pt][Cl] [Cisplatin, reference compound] | – | – | – | – | – | – | – | – | – | – | IC50 (MCF-7; 72 h): 26.2 ± 1.1 µM; IC50 (MDA-MB-231; 72 h): 32.2 ± 1 µM; IC50 [1]: 78.2 ± 1.2 µM; Inhibition of hTopo I supercoil relaxing activity ([12]; 50 µM): inhibited the hTopoI activity |
| Cn1c(=O)c2c(n(C)c1=O)[n+](C)cn2CC(O)c1ccccc1 (stereo not drawn) [P-L1, 9-[(2-Hydroxy-2-phenyl)ethyl]-1,3,7-trimethylxanthinium Iodide] | – | – | > 100 | > 100 | – | – | – | – | – | > 100 | – |
| Cn1c(=O)c2c(n(C)c1=O)[n+](C)cn2CCO [P-L3] | – | – | > 100 | > 100 | – | – | – | – | – | > 100 | – |
| Cn1c(=O)c2[nH]cnc2n(C)c1=O [Theophylline, reference compound] | > 500 | > 500 | > 500 | > 500 | >200 | >200 | >200 | >200 | >200 | > 500 | IC50 ABTS scavenging [3]: did not show any scavenging capacity; IC50 DPPH scavenging [4]: did not show any scavenging capacity; MIC [5]: > 200 µg/mL; MIC [6]: > 200 µg/mL; MIC [7]: > 200 µg/mL; MIC [8]: > 200 µg/mL; MIC [9]: > 200 µg/mL |

Further lines, with some results ahead:

| IC50 [3] [µM] | IC50 [4] [µM] | IC50 (MCF-7; Homo sapiens, MCF7, 72 h) [µM] | IC50 (MDA-MB-231; Homo sapiens, MDA-MB-231, 72 h) [µM] | Structure (SMILES) | M.I.C. E. coli [5] [µg/mL] | M.I.C. K. pneumoniae [6] [µg/mL] | M.I.C. E. faecalis [7] [µg/mL] | M.I.C. S. aureus [8] [µg/mL] | M.I.C. S. epidermidis [9] [µg/mL] | IC50 ([1]; Homo sapiens, MCF-10A) [µM] | further results |
| --- | --- | --- | --- | --- | --- | --- | --- | --- | --- | --- | --- |
| 155.5 ± 1 | > 500 | – | – | Cn1c(=O)c2c(n(C)[c]([Au-][I])[n+]2C2CCCCC2O)n(C)c1=O (stereo not drawn) [AuL2, 1,3,7-Trimethylxanthin-9-[cyclohexan-2-ol-8-ylidene]Au(I) Iodide] | 150 | 150 | 150 | 150 | 100 | – | IC50 (MCF-7; 72 h): > 100 µM; IC50 (MDA-MB-231; 72 h): > 100 µM; IC50 [1]: > 100 µM; Reduction in NO production [2]: ~12.64%; M.B.C. E. coli [5]: > 200 µg/mL; M.B.C. K. pneumoniae [6]: > 200 µg/mL; M.B.C. E. faecalis [7]: > 200 µg/mL; M.B.C. S. aureus [8]: > 200 µg/mL; M.B.C. S. epidermidis [9]: > 125 µg/mL; M.B.C. P. aeruginosa [10]: > 125 µg/mL; M.I.C. P. aeruginosa [10]: 100 µg/mL; M.B.C. S. typhimurium [11]: > 200 µg/mL; M.I.C. S. typhimurium [11]: 150 µg/mL |
| – | – | > 100 | > 100 | Cn1c(=O)c2c(n(C)c1=O)[n+](C)cn2C1CCCCC1O (stereo not drawn) [P-L2, 9-[Cyclohexan-2-ol]-1,3,7-trimethylxantinium Iodide] | – | – | – | – | – | > 100 | – |
| 54.5 ± 0.9 | 47 ± 1.2 | – | – | Cc1c(C)c2c(c(C)c1O)CCC(C)(C(=O)O)O2 (stereo not drawn) [Trolox, reference compound] | – | – | – | – | – | – | – |
